The first experiment concerns the target T1, NO synthase (Rattus norvegicus, UniProt P29476).
T1 construct: the supernatant was then removed by decantation and frozen in portions at −80° C; from tissue; host or cells: rat cerebellum, 20,000 g supernatant of homogenate
Briefly: HTS-NOS assay (NOS assay): conversion of radioactive arginine, cation-exchanger filter plate. The class given is biochemical. The note with it: 10 μM. A digest of the protocol:
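Percent inhibition was derived by comparing remaining radioactive arginine with compound-free controls. Arginine retained on phosphate cation-exchanger filters was counted after citrulline washout, following a 5-60 min room-temperature (25 °C) reaction of labelled arginine, NADPH-containing medium and rat cerebellar homogenate supernatant.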
With `[C-]#[N+]CCCCCCNc1c(-c2ccccc2Br)nc2cc(C)cc(C)n12` [Example 92, {6-[2-(2-Bromophenyl)-5,7-dimethyl-imidazo[1,2-a]pyridin-3-ylamino]-hexyl}-methylidyne-ammonium], the “HTS-NOS assay: % inhibition (10 μM)” value turned out to be 60%. On the same count and under the same terms, the value for `[C-]#[N+]CCCCCCNc1c(-c2ccccc2C)nc2cc(C)ccn12` [Example 97, Methylidyne-[6-(7-methyl-2-o-tolyl-imidazo[1,2-a]pyridin-3-ylamino)-hexyl]-ammonium] was 62%; that for `Cc1ccn2c(NC(C)(C)CC(C)(C)C)c(-c3ccc(CO)o3)nc2c1` [Example 102, {5-[7-Methyl-3-(1,1,33-tetramethyl-butylamino)-imidazo[1,2-a]pyridin-2-yl]-furan-2-yl}-methanol] was 59%. In the case of `[C-]#[N+]CCCCCCNc1c(-c2ccc(-c3ccccc3Cl)o2)nc2cccc(C)n12` [Example 103, (6-{2-[5-(2-Chlorophenyl)-furan-2-yl]-5-methyl-imidazo[1,2-a]pyridin-3-ylamino)-hexyl)-methylidyne-ammonium], the “HTS-NOS assay: % inhibition (10 μM)” value stood at 50%. On the same count and under the same terms, the value for `C#[N+]CCCCCCNc1c(-c2ccccc2C)nc2cc(C)cc(C)n12` [Example 106, [6-(5,7-Dimethyl-2-o-tolyl-imidazo[1,2-a]-pyridin-3-ylamino)-hexyl]-methylidyne-ammonium] was 60%; that for `[C-]#[N+]CCCCCCNc1c(-c2ccccn2)nc2cc(C)ccn12` [Example 107, Methylidyne-[6-(7-methyl-2-pyridin-2-yl-imidazo[1,2-a]pyridin-3-ylamino)-hexyl]-ammonium] was 50%; that for `C#[N+]CCCCCCNc1c(-c2ccc(OC)c(OC)c2)nc2cc(C)ccn12` [Example 109, {6-[2-(3,4-Dimethoxy-phenyl)-7-methyl-imidazo[1,2-a]pyridin-3-ylamino]-hexyl}-methylidyne-ammonium] was 51%. As to `Cc1cc(C)n2c(NC3CCCCC3)c(-c3ccccn3)nc2c1` [Example 114, Cyclohexyl-(5,7-dimethyt-2-pyridin-2-yl-imidazo[1,2-a]pyridin-3-yl)-amine], the “HTS-NOS assay: % inhibition (10 μM)” value was determined as 53%.

On to `[C-]#[N+]CCCCCCNc1c(-c2ccccc2F)nc2cc(C)cc(C)n12` [Example 116, {6-[2-(2-Fluoro-phenyl)-5,7-dimethyl-imidazo[1,2-a]pyridin-3-ylamino]-hexyl}-methylidyne-ammonium], for which the “HTS-NOS assay: % inhibition (10 μM)” value is given as 60%. Regarding `[C-]#[N+]CCCCCCNc1c(-c2cc3ccccc3c3ccccc23)nc2cc(C)ccn12` [Example 118, Methylidyne-[6-(7-methyl-2-phenanthren-9-yl-imidazo[1,2-a]pyridin-3-ylamino)-hexyl]-ammonium], the “HTS-NOS assay: % inhibition (10 μM)” value worked out at 56%. Regarding `C#[N+]CCCCCCNc1c(-c2cccc3ccccc23)nc2cc(C)ccn12` [Example 122, Methylidyne-[6-(7-methyl-2-naphthalen-1-yl-imidazo[1,2-a]pyridin-3-ylamino)-hexyl]-ammonium], the “HTS-NOS assay: % inhibition (10 μM)” value was 53%.

Staying with this experiment, now noted: read-out: HTS-NOS assay: % inhibition (10 μM).
Regarding `Cc1ccn2c(Nc3c(C)cccc3C)c(-c3cc4ccccc4o3)nc2c1` [Example 90, (2-benzofuran-2-yl-7-methyl-imidazo[1,2-a]-pyridin-3-yl)-(2,6-dimethyl-phenyl)-amine], the inhibition at 10 µM stood at 53%. For the compound `Cc1ccn2c(NC3CCCCC3)c(-c3ccc(C(=O)O)o3)nc2c1` [Example 91, 5-(3-Cyclohexylamino-7-methyl-imidazo[1,2-a]pyridin-2-yl)-furan-2-carboxylic acid], the inhibition at 10 µM came out at 64%. Same read-out and setting: under `Cc1ccn2c(NC(C)(C)C)c(C3CCCCC3)nc2c1` [Example 93, Tert-butyl-(2-cyclohexyl-7-methyl-imidazo[1,2-a]pyridin-3-yl)-amine] stands 52%; under `Cc1ccn2c(NC(C)(C)C)c(C)nc2c1` [Example 94, Tert-butyl-(2,7-dimethyl-imidazo[1,2-a]-pyridin-3-yl)-amine], 65%; under `Cc1ccc(-c2nc3cc(C)cc(C)n3c2NC(C)(C)CC(C)(C)C)cc1` [Example 95, (5,7-Dimethyl-2-p-tolyl-imidazo[1,2-a]-pyridin-3-yl)-(1,1,3,3-tetramethyl-butyl)-amine], 70%. For the compound `Cc1cccc(C)c1Nc1c(-c2cccc(Cl)c2Cl)nc2c(C)cccn12` [Example 96, [2-(2,3-Dichlorophenyl)-8-methyl-imidazo[1,2-a]pyridin-3-yl]-(2,6-dimethyl-phenyl)-amine], the inhibition at 10 µM is 55%. On to `Cc1ccn2c(NC(C)(C)CC(C)(C)C)c(-c3ccc(-c4cccc(Cl)c4)o3)nc2c1` [Example 98, {2-[5-(3-Chlorophenyl)-furan-2-yl]-7-methyl-imidazo[1,2-a]pyridin-3-yl}-(1,1,3,3-tetramethyl-butyl)-amine], for which the inhibition at 10 µM is 62%. On the same count and under the same terms, the value for `Cc1ccn2c(NC3CCCCC3)c(-c3ccc([N+](=O)[O-])o3)nc2c1` [Example 99, Cyclohexyl-[7-methyl-2-(5-nitro-furan-2-yl)-imidazo[1,2-a]pyridin-3-yl]-amine] was 66%.

`Cc1ccn2c(NC3CCCCC3)c(-c3ccccc3Br)nc2c1` [Example 100, [2-(2-Bromophenyl)-7-methyl-imidazo[1,2-a]pyridin-3-yl]-cyclohexyl-amine]: the inhibition at 10 µM worked out at 50%. `COc1ccccc1-c1nc2cc(C)ccn2c1NC(C)(C)CC(C)(C)C` [Example 101, [2-(2-Methoxy-phenyl)-7-methyl-imidazo[1,2-a]pyridin-3-yl]-(1,1,3,3-tetramethyl-butyl)-amine]: the inhibition at 10 µM was found to be 58%. `Cc1cc(C)n2c(NC3CCCCC3)c(-c3ccc([N+](=O)[O-])o3)nc2c1` [Example 104, Cyclohexyl-[5,7-dimethyl-2-(5-nitro-furan-2-yl)-imidazo[1,2-a]pyridin-3-yl]-amine]: the inhibition at 10 µM was found to be 63%. As for `Cc1ccn2c(NC3CCCCC3)c(-c3cc(C)c(C)o3)nc2c1` [Example 105, Cyclohexyl-[2-(4,5-dimethyl-furan-2-yl)-7-methyl-imidazo[1,2-a]pyridin-3-yl]-amine], the inhibition at 10 µM came to 65%. As to `COc1cccc(-c2nc3cc(C)cc(C)n3c2NC(C)(C)CC(C)(C)C)c1OC` [Example 108, (2-(2,3-Dimethoxy-phenyl)-5,7-dimethyl-imidazo[1,2-a]pyridin-3-yl]-(1,1,3,3-tetramethyl-butyl)-amine], the inhibition at 10 µM was found to be 73%. `Cc1ccn2c(NC(C)(C)C)c(-c3ccc(C(=O)O)s3)nc2c1` [Example 110, 5-(3-Tert-butylamino-7-methyl-imidazo[1,2-a]pyridin-2-yl)-thiophene-2-carboxylic acid]: the inhibition at 10 µM is 61%.

Turning to `Cc1cccn2c(NC3CCCCC3)c(-c3ccncc3)nc12` [Example 111, Cyclohexyl-(8-methyl-2-pyridin-4-yl-imidazo[1,2-a]pyridin-3-yl)-amine], the inhibition at 10 µM worked out at 52%.

With `Cc1ccc2nc(-c3cccc(Cl)c3Cl)c(NC(C)(C)CC(C)(C)C)n2c1` [Example 112, [2-(2,3-Dichloro-phenyl)-6-methyl-imidazo[1,2-a]pyridin-3-yl]-(1,1,3,3-tetramethyl-butyl)-amine], the inhibition at 10 µM amounted to 52%. With `CCCCNc1c(-c2ccc(C(=O)O)s2)nc2cnccn12` [Example 113, 5-(3-Butylamino-imidazo[1,2-a]pyrazin-2-yl)-thiophene-2-carboxylic acid], the inhibition at 10 µM was 54%. Take `Cc1cccn2c(NC(C)(C)CC(C)(C)C)c(-c3cc4ccccc4o3)nc12` [Example 115, (2-Benzofuran-2-yl-8-methyl-imidazo[1,2-a]pyridin-3-yl)-(1,1,3,3-tetramethyl-butyl)-amine]: the inhibition at 10 µM amounted to 59%. On to `COc1cccc(-c2nc3c(C)cccn3c2NC(C)(C)CC(C)(C)C)c1OC` [Example 117, [2-(2,3-Dimethoxy-phenyl)-8-methyl-imidazo[1,2-a]pyridin-3-yl]-(1,1,3,3-tetramethyl-butyl)-amine], for which the inhibition at 10 µM is 52%.

As to `CC(C)(C)Nc1c(-c2ccc(C(=O)O)s2)nc2cnccn12` [Example 119, 5-(3-Tert-butylamino-imidazo[1,2-a]pyrazin-2-yl)-thiophene-2-carboxylic acid], the inhibition at 10 µM stood at 56%. For `Cc1cccn2c(NC(C)(C)C)c(-c3ccccn3)nc12` [Example 120, Tert-butyl-(8-methyl-2-pyridin-2-yl-imidazo[1,2-a]pyridin-3-yl)-amine], the inhibition at 10 µM was found to be 56%. In the case of `Cc1cccn2c(NC3CCCCC3)c(-c3ccco3)nc12` [Example 121, Cyclohexyl-(2-furan-2-yl-8-methyl-imidazo[1,2-a]pyridin-3-yl)-amine], the inhibition at 10 µM worked out at 53%.

Turning to `Cc1cccn2c(NC(C)(C)C)c(C3CCCCC3)nc12` [Example 123, Tert-butyl-(2-cyclohexyl-8-methyl-imidazo[1,2-a]pyridin-3-yl)-amine], the inhibition at 10 µM stood at 53%.

As to `Cc1ccc2nc(-c3ccncc3)c(NC(C)(C)CC(C)(C)C)n2c1` [Example 124, (6-Methyl-2-pyridin-4-yl-imidazo[1,2-a]-pyridin-3-yl)-(1,1,3,3-tetramethyl-butyl)-amine], the inhibition at 10 µM amounted to 68%.

`Cc1ccc2nc(-c3cccnc3)c(NC(C)(C)C)n2c1` [Example 125, Tert-butyl-(6-methyl-2-pyridin-3-yl-imidazo[1,2-a]pyridin-3-yl)-amine]: the inhibition at 10 µM is 51%. Still for that read-out and setting: the value for `Cc1ccn2c(NC(C)(C)CC(C)(C)C)c(-c3cccnc3)nc2n1` [Example 126, (7-Methyl-2-pyridin-3-yl-imidazo[1,2-a]-pyrimidin-3-yl)-(1,1,3,3-tetramethyl-butyl)-amine] was 50%.

As usually defined, the inhibition is the drop in the measured response relative to a control, in per cent.

The values are drawn from patent US20040023972A1, “Use of substituted imidazo[1,2-a]-pyridin-, -pyrimidin-and-pyrazin-3-yl-amine derivatives in the preparation of medicaments for inhibiting NOS” (Gruenenthal GmbH, priority 2000, published 2004).
